Test results as given in patent US20250382303A1, “NOVEL COMPOUND AS NADPH OXIDASE 2 INHIBITOR AND PHARMACEUTICAL COMPOSITION CONTAINING SAME” (DONGGUK UNIVERSITY INDUSTRY-ACADEMIC COOPERATION FOUNDATION, priority 2022, published 2025).

Target: T1, NOX2 (Homo sapiens, UniProt P04839)
T1 construct: Used for the NOX2 activity assay was human leukemia 60 cells (HL-60), which are widely, universally used to assess NOX2 activity; endogenous in cells
T1 sequence (P04839 2-570 limits assumed): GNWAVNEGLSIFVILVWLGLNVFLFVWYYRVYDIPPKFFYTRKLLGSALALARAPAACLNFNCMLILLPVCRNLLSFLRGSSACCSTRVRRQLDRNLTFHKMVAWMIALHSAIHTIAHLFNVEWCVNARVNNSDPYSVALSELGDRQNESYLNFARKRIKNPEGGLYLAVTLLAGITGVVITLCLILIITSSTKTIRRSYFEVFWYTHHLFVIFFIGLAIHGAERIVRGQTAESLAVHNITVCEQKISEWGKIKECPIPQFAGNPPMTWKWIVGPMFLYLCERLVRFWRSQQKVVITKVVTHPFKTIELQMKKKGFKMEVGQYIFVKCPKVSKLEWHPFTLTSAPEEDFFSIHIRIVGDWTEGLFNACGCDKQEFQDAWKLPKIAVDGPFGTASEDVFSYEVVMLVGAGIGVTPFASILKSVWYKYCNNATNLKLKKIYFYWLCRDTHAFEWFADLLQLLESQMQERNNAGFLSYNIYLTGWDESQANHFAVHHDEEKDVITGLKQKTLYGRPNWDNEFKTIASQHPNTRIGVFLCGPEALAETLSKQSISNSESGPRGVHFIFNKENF
T1 sequence (P13498 2-195 partner limits assumed): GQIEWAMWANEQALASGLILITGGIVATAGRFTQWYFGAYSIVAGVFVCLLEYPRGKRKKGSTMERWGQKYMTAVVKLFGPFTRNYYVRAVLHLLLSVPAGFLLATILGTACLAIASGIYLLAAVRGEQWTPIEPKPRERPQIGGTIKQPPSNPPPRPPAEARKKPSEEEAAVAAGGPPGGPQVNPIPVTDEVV
Experiment: NOX2 activity assay: PMA-induced ROS in ATRA-differentiated HL-60 cells (WST-1 or Amplex Red/HRP probe)
Type: cell-based
Settings: for IC50: WST-1 probe, differentiated HL-60, 200 ng/mL PMA, read-out: Inhibitory ability (NOX2); for concentration dependence of NOX2 inhibition: FIG. 1; for NOX2 inhibitory ability, verbal rating: WST-1, comment on Table 1
Protocol: NOX activity was evaluated by measuring the reactive oxygen species (ROS) produced by NOX. The probes that were used to measure ROS were water soluble tetrazolium-1 (WST-1, superoxide-specific colorimetric probe) and Amplex Red/horseradish peroxidase (AR/HRP, hydrogen peroxide-specific fluorometric probe), and the concentration of the probes used was […]. For WST-1, the change in the absorbance at 450 nm was measured, and, for AR, the change in fluorescence signals was measured at 560 nm and 585 nm, respectively for excitation wavelength (Ex) and emission wavelength (Em). The optical signal was measured using the SpectraMax M3 microplate reader from Molecular Devices at 37° C. for 60 minutes.
Used for the NOX2 activity assay was human leukemia 60 cells (HL-60), which are widely, universally used to assess NOX2 activity. 1×10^5 cells/mL of HL-60 were treated with […] all-trans-retinoic acid (ATRA) for 4 days to induce differentiation. Differentiated HL-60 (diff. HL-60) was centrifuged at 200 g for 5 minutes and washed twice with HBSS. Differentiation was induced to reach 3×10^4 cells/well on a 96-well plate (diff). HL-60 was seeded. The test material was treated to cells and left in a 37° C. incubator for 60 minutes. As a control group, the same concentration of DMSO, which is the vehicle of the test material, was used. 200 ng/mL phorbol 12-myristate 13-acetate (PMA) was used as the NOX2 activator, and the production amount of ROS induced by PMA was measured for 60 minutes. […] diphenyleneiodonium (DPI), which is well known to inhibit NOX, was used as a positive control group to evaluate whether the NOX2 activity tester properly operates.

SMILES | IC50 | concentration dependence of NOX2 inhibition | NOX2 inhibitory ability, verbal rating
COc1cccc2c1OC1(C)CC2NC(=O)N1c1cccc(C(=O)N2CCc3ccccc3C2)c1 (centres unmarked) [Compound 25g, 10-Methoxy-2-methyl-3-(3-(1,2,3,4-tetrahydroisoquinoline-2-carbonyl)phenyl)-5,6-dihydro-2H-2,6-methanobenzo[g][1,3,5]oxadiazocin-4(3H)-one] | > 10 µM |  | 
CC12CC(NC(=O)N1c1cccc(C(=O)N3CCc4ccccc4C3)c1)c1ccc(Br)cc1O2 (centres unmarked) [Compound 25h, 9-Bromo-2-methyl-3-(3-(1,2,3,4-tetrahydroisoquinoline-2-carbonyl)phenyl)-5,6-dihydro-2H-2,6-methanobenzo[g][1,3,5]oxadiazocin-4(3H)-one] | 1 to 10 µM |  | 
CC12CC(NC(=O)N1c1cccc(C(=O)N3CCc4ccccc4C3)c1)c1ccc(C(F)(F)F)cc1O2 (centres unmarked) [Compound 25i, 2-Methyl-3-(3-(1,2,3,4-tetrahydroisoquinoline-2-carbonyl)phenyl)-9-(trifluoromethyl)-5,6-dihydro-2H-2,6-methanobenzo[g][1,3,5]oxadiazocin-4(3H)-one] | 1 to 10 µM |  | 
CC12CC(NC(=O)N1c1cccc(C(=O)N3CCc4ccccc4C3)c1)c1ccc(Cl)cc1O2 (centres unmarked) [Compound 25j, 9-Chloro-2-methyl-3-(3-(1,2,3,4-tetrahydroisoquinoline-2-carbonyl)phenyl)-5,6-dihydro-2H-2,6-methanobenzo[g][1,3,5]oxadiazocin-4(3H)-one] | 1 to 10 µM |  | 
CC12CC(NC(=O)N1c1cccc(C(=O)N3CCc4ccccc4C3)c1)c1ccc(F)cc1O2 (centres unmarked) [Compound 25k, 9-Fluoro-2-methyl-3-(3-(1,2,3,4-tetrahydroisoquinoline-2-carbonyl)phenyl)-5,6-dihydro-2H-2,6-methanobenzo[g][1,3,5]oxadiazocin-4(3H)-one] | > 10 µM |  | 
COc1ccc2c(c1)OC1(C)CC2NC(=O)N1c1cccc(C(=O)N2CCc3ccccc3C2)c1 (centres unmarked) [Compound 25l, 9-Methoxy-2-methyl-3-(3-(1,2,3,4-tetrahydroisoquinoline-2-carbonyl)phenyl)-5,6-dihydro-2H-2,6-methanobenzo[g][1,3,5]oxadiazocin-4(3H)-one] | > 10 µM |  | 
CC12CC(NC(=O)N1c1cccc(C(=O)N3CCc4ccccc4C3)c1)c1c(F)cccc1O2 (centres unmarked) [Compound 25m, 7-Fluoro-2-methyl-3-(3-(1,2,3,4-tetrahydroisoquinoline-2-carbonyl)phenyl)-5,6-dihydro-2H-2,6-methanobenzo[g][1,3,5]oxadiazocin-4(3H)-one] | 1 to 10 µM |  | 
CC12CC(NC(=O)N1c1cccc(C(=O)N3CCc4ccccc4C3)c1)c1cc(-c3ccsc3)ccc1O2 (centres unmarked) [Compound 26a, 2-Methyl-3-(3-(1,2,3,4-tetrahydroisoquinoline-2-carbonyl)phenyl)-8-(thiophen-3-yl)-5,6-dihydro-2H-2,6-methanobenzo[g][1,3,5]oxadiazocin-4(3H)-one] | < 1 µM | inhibited NOX2 activity in a concentration-dependent manner | excellent inhibitory ability
CC12CC(NC(=O)N1c1cccc(C(=O)N3CCc4ccccc4C3)c1)c1cc(-c3ccoc3)ccc1O2 (centres unmarked) [Compound 26b, 8-(Furan-3-yl)-2-methyl-3-(3-(1,2,3,4-tetrahydroisoquinoline-2-carbonyl)phenyl)-5,6-dihydro-2H-2,6-methanobenzo[g][1,3,5]oxadiazocin-4(3H)-one] | < 1 µM | inhibited NOX2 activity in a concentration-dependent manner | excellent inhibitory ability
CC12CC(NC(=O)N1c1cccc(C(=O)N3CCc4ccccc4C3)c1)c1cc(-c3cccs3)ccc1O2 (centres unmarked) [Compound 26c, 2-Methyl-3-(3-(1,2,3,4-tetrahydroisoquinoline-2-carbonyl)phenyl)-8-(thiophen-2-yl)-5,6-dihydro-2H-2,6-methanobenzo[g][1,3,5]oxadiazocin-4(3H)-one] | > 10 µM |  | excellent inhibitory ability
CC12CC(NC(=O)N1c1cccc(C(=O)N3CCc4ccccc4C3)c1)c1cc(-c3ccco3)ccc1O2 (centres unmarked) [Compound 26d, 8-(furan-2-yl)-2-methyl-3-(3-(1,2,3,4-tetrahydroisoquinoline-2-carbonyl)phenyl)-5,6-dihydro-2H-2,6-methanobenzo[g][1,3,5]oxadiazocin-4(3H)-one] | > 10 µM |  | excellent inhibitory ability
COc1ccc(-c2ccc3c(c2)C2CC(C)(O3)N(c3cccc(C(=O)N4CCc5ccccc5C4)c3)C(=O)N2)cc1 (centres unmarked) [Compound 26e, 8-(4-Methoxyphenyl)-2-methyl-3-(3-(1,2,3,4-tetrahydroisoquinoline-2-carbonyl)phenyl)-5,6-dihydro-2H-2,6-methanobenzo[g][1,3,5]oxadiazocin-4(3H)-one] | > 10 µM |  | excellent inhibitory ability
CC12CC(NC(=O)N1c1cccc(C(=O)N3CCc4ccccc4C3)c1)c1cc(N3CCOCC3)ccc1O2 (centres unmarked) [Compound 26f, 2-Methyl-8-morpholino-3-(3-(1,2,3,4-tetrahydroisoquinoline-2-carbonyl)phenyl)-5,6-dihydro-2H-2,6-methanobenzo[g][1,3,5]oxadiazocin-4(3H)-one] | 1 to 10 µM |  | 
CC12CC(NC(=O)N1c1cccc(C(=O)N3CCc4ccccc4C3)c1)c1cccc(-c3ccsc3)c1O2 (centres unmarked) [Compound 26g, 2-Methyl-3-(3-(1,2,3,4-tetrahydroisoquinoline-2-carbonyl)phenyl)-10-(thiophen-3-yl)-5,6-dihydro-2H-2,6-methanobenzo[g][1,3,5]oxadiazocin-4(3H)-one] | 1 to 10 µM |  | 
CC12CC(NC(=O)N1c1cccc(C(=O)N3CCc4ccccc4C3)c1)c1cccc(-c3ccoc3)c1O2 (centres unmarked) [Compound 26h, 10-(Furan-3-yl)-2-methyl-3-(3-(1,2,3,4-tetrahydroisoquinoline-2-carbonyl)phenyl)-5,6-dihydro-2H-2,6-methanobenzo[g][1,3,5]oxadiazocin-4(3H)-one] | 1 to 10 µM |  | 
CC12CC(NC(=O)N1c1cccc(C(=O)N3CCc4ccccc4C3)c1)c1ccc(-c3ccsc3)cc1O2 (centres unmarked) [Compound 26i, 2-Methyl-3-(3-(1,2,3,4-tetrahydroisoquinoline-2-carbonyl)phenyl)-9-(thiophen-3-yl)-5,6-dihydro-2H-2,6-methanobenzo[g][1,3,5]oxadiazocin-4(3H)-one] | 1 to 10 µM |  | 
CC12CC(NC(=O)N1c1cccc(C(=O)N3CCc4ccccc4C3)c1)c1ccc(-c3ccoc3)cc1O2 (centres unmarked) [Compound 26j, 9-(Furan-3-yl)-2-methyl-3-(3-(1,2,3,4-tetrahydroisoquinoline-2-carbonyl)phenyl)-5,6-dihydro-2H-2,6-methanobenzo[g][1,3,5]oxadiazocin-4(3H)-one] | 1 to 10 µM |  | 
CC12CC(NC(=O)N1c1cccc(C(=O)N3CCc4ccc(F)cc4C3)c1)c1cc(Br)ccc1O2 (centres unmarked) [Compound 27a, 8-Bromo-3-(3-(7-fluoro-1,2,3,4-tetrahydroisoquinoline-2-carbonyl)phenyl)-2-methyl-5,6-dihydro-2H-2,6-methanobenzo[g][1,3,5]oxadiazocin-4(3H)-one] | 1 to 10 µM |  | 
CC12CC(NC(=O)N1c1cccc(C(=O)N3CCc4cc(F)ccc4C3)c1)c1cc(Br)ccc1O2 (centres unmarked) [Compound 27b, 8-Bromo-3-(3-(6-fluoro-1,2,3,4-tetrahydroisoquinoline-2-carbonyl)phenyl)-2-methyl-5,6-dihydro-2H-2,6-methanobenzo[g][1,3,5]oxadiazocin-4(3H)-one] | 1 to 10 µM |  | 
